Results reported in patent US20210108199A1, “Treatment for aggressive cancers by targeting C9ORF72” (The Trustees of Columbia University in the City of New York, priority 2017, published 2021).

Assays:
Format in all cases: cell-based
[1] = tested on: U87 cells; test: Dextran measurement of macropinocytosis; conditions: fluorescein dextran
Protocol: U87 cells were treated with control and C9 siRNA for a total of 3 days. At day 2, cells were treated with a final concentration of 20 μM dextran and incubased overnight. On day 3, cells were washed with phenol red-free DMEM and then imaged using excitation/emission for fluorescein (494/521) on an LSM 700; Carl Zeiss™ microscope.
In this study, a fluid phase marker, fluorescein dextran, was added to the media. If the vacuoles are macropinosomes, the marker will be taken up and internalized, resulting in green fluorescent macropinocytosis.
The right images are a merge between the left and middle images. The scale bar represents 10 μm. White arrows indicate the position of vacuoles. In FIG. 8, the upper panels are fluorescent images (Alexa™ 488) of U87 cells treated with control (siCtrl) and C9 (siC9; SEQ ID NO:631) siRNA as indicated incubated in fluorescein dextran (green). The lower panels are the same cells imaged in phase contrast.

[2] = tested on: U87 cells; test: TUNEL assay for DNA breaks; conditions: vs control
Protocol: Cells were treated with control and C9 siRNA for three days. On day three, cells were collected for TUNEL assay using the FlowTACS kit (TREVIGEN™, 4817-60-K) according to manufacturer's instructions to detect DNA fragmentation. For a positive control, DNA damage was induced using doxorubicin. Data were collected on a FACSCalibur™ flow cytometer (Becton Dickinson™) and data analysis performed on FlowJo™.
ROS can cause oxidative DNA damage. Since elevated ROS levels were observed under C9 KD conditions, it may cause increase in DNA damage. To test this hypothesis, a TUNEL assay was used to measure DNA breaks. […] In addition to C9KD, U87 cells were treated with a known chemotherapeutic DNA damage-inducing drug to serve as a positive control for DNA damage (see FIG. 23). FIG. 23 presents data for the TUNEL assay of U87 cells treated as described for FIG. 21 and for positive DNA-damage control with 0.5 μM doxorubicin (DOX). FIG. 23A presents data for the percentage of cells with DNA fragmentation (shown by DNA damage) comparing control (siCtrl) C9 KD (siC9; SEQ ID NO:631) and DOX-treated cells as measured by FACS analysis. […] FIG. 24 is a set of graphs showing data for cells treated as described for FIG. 23, with the exception of using a different C9 siRNA, indicated as siC9 #2 (SEQ ID NO:633).

[3] = tested on: γ-H2AX; test: γ-H2AX western blot and foci quantitation; conditions: U87 cells
Protocol: Cells were treated with control and C9 siRNA for three days. Cells then were fixed and stained as described in the as described above with p-H2AX(S139, #25575) antibody. For a DNA damage positive control, 0.5 μM doxorubicin hydrochloride (Sigma™, D151510MG) was used for 24 hours before imaging. Cells were then imaged using LSM 700 Carl Zeiss™. To quantify p-H2AX foci we used a publicly available software FoCo™ as described previously.
To further confirm the presence of DNA damage upon C9 KD, the DNA damage marker γ-H2AX was used as a probe on C9 KD. […] Immunofluorescence was used to image and quantitate γ-H2AX foci in control, C9 KD and doxorubicin-treated U87 cells.
FIG. 25A is a WB showing γ-H2AX and ubiquitinated γ-H2AX, control (siCtrl) and C9 KD (siC9; SEQ ID NO:631), with loading of control actin. FIG. 25B is a set of IF images of U87 cells stained for γ-H2AX (green). FIG. 25C is a graph quantitating about 90 cells (from three biological replicates) for γ-H2AX foci per cell between control (siCtrl) C9 KD (siC9) and DOX-treated U87 cells. Statistical significance was assessed by an unpaired t-test: NS P>0.05, *P≤0.05, **P≤0.01, ***P≤0.001 ****P≤0.0001.

[4] = tested on: p53; test: Western blot of phospho-p53, p53 and p21; conditions: U87 cells
Protocol: For Western blot analysis, cells were lysed with lysis buffer (20 mM sodium phosphate (pH 7.0), 250 mM NaCl, 30 mM sodium pyrophosphate, 0.1% Nonidet™ P-40, 5 mM EDTA, 10 mM NaF, 0.1 mM Na3VO4, and 1 mM PMSF) supplemented with complete protease inhibitors (Roche™) and homogenized by passage through a 28 gauge needle. Protein concentration was measured with a Bio-Rad™ protein assay dye reagent and results were read using a spectrophotometer (BiophotometerPlus™ by Eppendorf™). Protein extracts were resolved by SDS PAGE on gradient (Thermo Fisher™) or 12% gels. Proteins were then electrotransferred at 350 mA for 80 minutes onto a PVDF membrane (Immobilon-P PVDF). Membranes were blocked with PBST with 5% milk and 1% BSA for 30 minutes. Quantitation of blots was performed Image Studio Lite software (LI-COR Biosciences™).
One of the responses to DNA damage is activation of p53 by ATM. Upon DNA damage, ATM activation leads to p53 phosphorylation, which activates p53 as a transcription factor. Since increased DNA damage was observed upon C9 KD, whether p53 is activated in C9 depleted cells was investigated. First, total p53 levels were measured in U87 cells treated with control and two independent siRNAs against C9. […] Then, the levels of phosphorylated (active) p53 (at s15) was measured. Phosphorylation of s15 on p53 was increased in both C9 siRNA samples.

[5] = tested on: U87 cells; test: β-Galactosidase staining (senescence)
Protocol: β-Galactosidase staining was performed using a Senescence™ β-Galactosidase Staining Kit (Cell Signaling™, #9860) and used according to manufacturer's instructions.
To confirm that cells undergo non-apoptotic death, apoptosis was blocked with a broad caspase inhibitor Z-VAD-FMK upon C9 KD. […] Additionally, the apoptosis inducer, staurosporine (STS), was used to asses Z-VAD-FMK efficacy. […] A beta galactosidase staining technique was used to asses senescence upon C9 KD. […] See FIG. 20, for which U87 cells were treated with control (siCtrl) and C9 (siC9; SEQ ID NO:631) siRNA and then subjected to β-Galactosidase Staining.

## siC9: siRNA targeting C9 mRNA: UUAAUGAAACAAUAAUCACUC (SEQ ID NO:631; sense) and GUGAUUAUUGUUUCAUUAAUC (SEQ ID NO:632; antisense) (listed as RNA, chemistry not given here)
[1]
  dextran in vacuoles: formation of vacuoles filled with dextran
[2]
  DNA breaks (TUNEL): increase in DNA breaks
[3]
  γ-H2AX levels (western blot): increased γ-H2AX levels
[3]; immunofluorescence
  γ-H2AX foci per cell: significant increase in γ-H2AX foci
[4]
  p21 protein levels: increased p21 protein levels
  phosphorylation of s15 on p53: increased
  total p53 levels: elevates p53 levels
[5]
  nucleus and cell size: increase in both nucleus and cell size
  β-galactosidase staining (senescence): did not stain with the assay
